Assay [1] deals with β-alanine aminopeptidase. The assay can be described thus: Two-substrate semi-solid medium (Trypticase Soy agar), colony color. It is filed as cell-based. The settings on record: agar also contains 6-Chloro-3-indolyl-β-D-glycopyranoside and 3,5-Dihydroxy-2-naphthoic acid, 35-37° C., 18-24 hours. The method, then: The medium was poured out and inoculated as follows: • 10 dishes with pure cultures corresponding to five strains of Pseudomonas aeruginosa and five of Pseudomonas mendocina, and • 2 dishes with a mixture of two strains, one being of Pseudomonas aeruginosa and the other of Pseudomonas mendocina. The Petri dishes were incubated at 35-37° C. After 18-24 hours of incubation, the color of the colonies was recorded.

Assay [2] has as its system β-alanine aminopeptidase. It is filed as cell-based. The settings on record: Shigella flexneri; 10 strains tested.
Assay [3] relates to β-alanine aminopeptidase. The settings on record: Shigella dysenteriae; 10 strains tested.
Assay [4] relates to β-alanine aminopeptidase.
Assay [5] deals with β-alanine aminopeptidase. The following applies: Comamonas testoteroni; 10 strains tested.
Assay [6] concerns β-alanine aminopeptidase. The settings on record: 137 strains tested.
In assay [7] the test system is β-alanine aminopeptidase. The format is cell-based. The settings on record: Shigella boydii; 10 strains tested.
In assay [8] the test system is β-alanine aminopeptidase. The source holds these as a separate data set.
The subject of assay [9] is β-alanine aminopeptidase. The settings on record: Chryseobacterium indologenes; 10 strains tested.
The subject of assay [10] is β-alanine aminopeptidase. This is another data set of the same source.
Assay [11] relates to β-alanine aminopeptidase. It is filed as cell-based, Ochrobactrum anthropi.
Assay [12] concerns β-alanine aminopeptidase. The settings on record: Pseudomonas stutzeri; 10 strains tested.
In assay [13] the test system is β-alanine aminopeptidase. The settings on record: Oligella urethralis; 10 strains tested.
Where [14] appears, read: Chromobacterium violaceum, 11 strains tested.
Setting [15] is: Ralstonia pickettii, 10 strains tested.
The mark [16] stands for this setting: Pseudomonas mendocina, 10 strains tested.
[17] abbreviates: Ochrobactrum anthropi, 11 strains tested.

Here are results for two compounds from patent publication US6905841B2, “Enzymatic substrates for detecting Pseudomonas aeruginas” (Biomerieux S.A., priority 1999, dated 2005).

Read-outs that look alike come from different tables or passages of the source.

Take `CNc1ccc(N(C)C(=O)CCN)cc1` [β-Alanyl-N,N′-dimethyl-p-phenylene-diamine]: the “color of the colonies” value with β-alanine aminopeptidase [1] (Pseudomonas aeruginosa) is given as “Blue colonies with a blue halo”; in the assay with β-alanine aminopeptidase [1] (Pseudomonas mendocina), “purple colonies with a blue halo”.

In the case of `Cc1cc(=O)oc2cc(NC(=O)CCN)ccc12`, the Borderline results in the assay on β-alanine aminopeptidase [2] is reported as 0; with β-alanine aminopeptidase [3], 0; in the assay with β-alanine aminopeptidase [4] (setting [14]), 1; in the assay on β-alanine aminopeptidase [5], 0; in the assay on β-alanine aminopeptidase [6] (Pseudomonas aeruginosa), 1; in the assay on β-alanine aminopeptidase [7], 0. For the same compound, the Borderline results with β-alanine aminopeptidase [8] (setting [15]), in the assay with β-alanine aminopeptidase [9], in the assay on β-alanine aminopeptidase [10] (setting [16]), with β-alanine aminopeptidase [11] (setting [17]), with β-alanine aminopeptidase [12] and in the assay with β-alanine aminopeptidase [13] was 0 in each case. For the same compound, the “Number of negative results” value in the assay with β-alanine aminopeptidase [2] is recorded as 10; in the assay with β-alanine aminopeptidase [3] it was 10; in the assay on β-alanine aminopeptidase [4] (setting [14]) it was 9; in the assay on β-alanine aminopeptidase [5], 10; with β-alanine aminopeptidase [6] (Pseudomonas aeruginosa), 2; in the assay with β-alanine aminopeptidase [7] it was 10. The “Number of negative results” value in the assay on β-alanine aminopeptidase [8] (setting [15]) was 8; with β-alanine aminopeptidase [9], 10; with β-alanine aminopeptidase [10] (setting [16]) it was 0; in the assay with β-alanine aminopeptidase [11] (setting [17]), 0; in the assay on β-alanine aminopeptidase [12] it was 10; in the assay on β-alanine aminopeptidase [13] it was 10. Further, the “Number of positive results” value in the assay on β-alanine aminopeptidase [2] came to 0; with β-alanine aminopeptidase [3] it was 0; in the assay with β-alanine aminopeptidase [4] (setting [14]), 1; in the assay with β-alanine aminopeptidase [5] it was 0; with β-alanine aminopeptidase [6] (Pseudomonas aeruginosa) it was 134; in the assay with β-alanine aminopeptidase [7] it was 0. The “Number of positive results” value in the assay with β-alanine aminopeptidase [8] (setting [15]) turned out to be 2; in the assay with β-alanine aminopeptidase [9] it was 0; with β-alanine aminopeptidase [10] (setting [16]), 10; in the assay with β-alanine aminopeptidase [11] (setting [17]) it was 11; in the assay on β-alanine aminopeptidase [12], 0; in the assay on β-alanine aminopeptidase [13] it was 0. Besides, the “percentage of positive results” value with β-alanine aminopeptidase [4] (Chromobacterium violaceum strains) was 10%; in the assay with β-alanine aminopeptidase [6] (Pseudomonas aeruginosa strains), 97.8%; with β-alanine aminopeptidase [8] (Ralstonia pickettii strains) it was 20%; with β-alanine aminopeptidase [10] (Pseudomonas mendocina strains), 100%; with β-alanine aminopeptidase [11] (Ochrobactrum anthropi strains), 100%.
